Read-outs that look alike come from different tables or passages of the source.
Tests used:
[1] = target: T1, SOS1 catalytic domain (residues 564-1049) (Homo sapiens, UniProt Q07889); experiment: SOS1 SPR binding affinity assay (Biacore 8K)
T1 sequence (Q07889 564-1049): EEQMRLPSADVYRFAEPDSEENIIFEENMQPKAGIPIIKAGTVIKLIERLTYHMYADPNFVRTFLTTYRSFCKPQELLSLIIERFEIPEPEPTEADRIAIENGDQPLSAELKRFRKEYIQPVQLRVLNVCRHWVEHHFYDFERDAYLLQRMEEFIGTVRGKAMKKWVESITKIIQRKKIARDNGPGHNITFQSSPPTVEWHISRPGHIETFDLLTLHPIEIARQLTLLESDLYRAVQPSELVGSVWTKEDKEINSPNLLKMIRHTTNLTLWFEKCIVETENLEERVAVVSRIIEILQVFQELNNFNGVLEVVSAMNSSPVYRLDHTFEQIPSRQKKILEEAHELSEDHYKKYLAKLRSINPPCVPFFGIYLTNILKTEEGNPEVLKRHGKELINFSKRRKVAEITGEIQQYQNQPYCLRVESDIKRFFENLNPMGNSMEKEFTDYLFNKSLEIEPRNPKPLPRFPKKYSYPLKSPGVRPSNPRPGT

[2] = target: T2, SOS1 nucleotide exchange of wild-type KRAS (SOS1 catalytic domain residues 564-1049; KRAS residue 1-169) (Homo sapiens, UniProt Q07889); experiment: Inhibition of SOS1 nucleotide exchange activity of KRAS (TR-FRET); type: biochemical
T2 sequence (Q07889 564-1049): T1 sequence (Q07889 564-1049)

[3] = tested on: SOS1 function in cells: cellular pERK in PC-9 cells (EGFR Ex19Del); experiment: pERK potency assay in PC-9 cells (AlphaLISA SureFire Ultra p-ERK1/2); type: cell-based; details: 1 hour incubation
Experimental: The purpose of this assay is tomeasure the ability of test compounds to inhibit SOS1 function in cells. SOS1 activates RAS proteins by catalyzing the conversion of RAS-GDP to RAS-GTP in response to receptor tyrosine kinase activation. […] The procedure described below measures the level of cellular pERK in response to test compounds in PC-9 cells (EGFR Ex19Del).
PC-9 cells were grown and maintained using media and procedures recommended by the ATCC. On the day prior to compound addition, cells were plated in 384-well cell culture plates (40 μL/well) and grown overnight in a 37° C., 5% CO2 incubator. Test compounds were prepared in 10, 3-fold dilutions in DMSO, with a top concentration of 10 mM. On the day of the assay, 40 nL of test compound was added to each well of cell culture plate using an Echo550 liquid handler (LabCyte). Concentrations of test compound were tested in duplicate with highest test concentration being 10 μM. After compound addition, cells were incubated for 1 hour at 37° C., 5% CO2. Following incubation, culture medium was removed and cells were washed once with phosphate buffered saline.
Cellular pERK level was determined using the AlphaLISA SureFire Ultra p-ERK1/2 Assay Kit (PerkinElmer). Cells were lysed in 25 μL lysis buffer, with shaking at 600 RPM at room temperature for 15 minutes. Lysate (10 μL) was transferred to a 384-well Opti-plate (PerkinElmer) and 5 μL acceptor mix was added. The plate was centrifuged at 1000 RPM for 1 minute, and incubated in the dark for 2 hours. Following this incubation, 5 μL of donor mix was added, the plate was sealed and centrifuged at 1000 RPM for 1 minute, and the mixture was incubated for 2 hours at room temperature. Signal was read on an Envision plate reader (PerkinElmer) using standard AlphaLISA settings. Analysis of raw data was carried out in Excel (Microsoft) and Prism (GraphPad). Signal was plotted vs. the decadal logarithm of compound concentration, and IC50 was determined by fitting a 4-parameter sigmoidal concentration response model.

[4] = avi-tagged SOS1 catalytic domain immobilized on streptavidin chip, equilibrium 1:1 binding fit, read-out: SOS1 SPR Equilibrium Kd
[5] = SOS1 nucleotide exchange of wild-type KRAS, three replicates, four-parameter logistic fit, read-out: TR-FRET IC50

| SMILES | Kd [1, 4] [nM] | IC50 [2, 5] [nM] | further results |
| --- | --- | --- | --- |
| C[C@@H](Nc1ncnc2c1cc(N1CCOCC1)c(=O)n2C)c1cccc(C(F)(F)CO)c1 [Example 2, (R)-4-((1-(3-(1,1-difluoro-2-hydroxyethyl)phenyl)ethyl)amino)-8-methyl-6-morpholinopyrido[2,3-d]pyrimidin-7(8H)-one] | 7.36 | 12.9 |  |
| Cc1nc(N[C@H](C)c2cccc(C(F)(F)CO)c2)c2cc(C3=CCOCC3)c(=O)n(C)c2n1 [Example 3, (R)-4-((1-(3-(1,1-difluoro-2-hydroxyethyl)phenyl)ethyl)amino)-6-(3,6-dihydro-2H-pyran-4-yl)-2,8-dimethylpyrido[2,3-d]pyrimidin-7(8H)-one] | 21.8 | 34.9 |  |
| Cc1nc(N[C@H](C)c2cccc(C(F)(F)CO)c2)c2cc(C3=CCNCC3)c(=O)n(C)c2n1 [Example 4, (R)-4-((1-(3-(1,1-difluoro-2-hydroxyethyl)phenyl)ethyl)amino)-2,8-dimethyl-6-(1,2,3,6-tetrahydropyridin-4-yl)pyrido[2,3-d]pyrimidin-7(8H)-one] |  |  | Kd [1]: 7.97 nM; IC50 [2]: 10.8 nM |
| C[C@@H](Nc1ncnc2c1cc(C1=CCOCC1)c(=O)n2C)c1cccc(C(F)(F)F)c1 [Example 5, (R)-6-(3,6-dihydro-2H-pyran-4-yl)-8-methyl-4-((1-(3-(trifluoromethyl)phenyl)ethyl)amino)pyrido[2,3-d]pyrimidin-7(8H)-one] |  | 113 |  |
| Cc1nc(N[C@H](C)c2cc(N)cc(C(F)(F)F)c2)c2cc(C3=CCOCC3)c(=O)n(C)c2n1 [Example 7, (R)-4-((1-(3-amino-5-(trifluoromethyl)phenyl)ethyl)amino)-6-(3,6-dihydro-2H-pyran-4-yl)-2,8-dimethylpyrido[2,3-d]pyrimidin-7(8H)-one] | 117 | 155 |  |
| Cc1nc(N[C@H](C)c2cc(N)cc(C(F)(F)F)c2)c2cc(C3CCNCC3)c(=O)[nH]c2n1 [Example 8, (R)-4-((1-(3-amino-5-(trifluoromethyl)phenyl)ethyl)amino)-2-methyl-6-(piperidin-4-yl)pyrido[2,3-d]pyrimidin-7(8H)-one] |  | 22.2 |  |
| Cc1nc(N[C@H](C)c2cccc(C(F)(F)F)c2)c2cc(N3CCOCC3)c(=O)n(C)c2n1 [Example 10, 2,8-dimethyl-6-(morpolin-4-yl)-4-[[(1R)-1-[3-(trifluoromethyl)phenyl]ethyl]amino]-7H,8H-pyrido[2,3-d]pyrimidin-7-one] |  | 178 | IC50 ([3]; Homo sapiens, PC-9, 1 h): 787 nM |
| C[C@@H](Nc1ncnc2c1cc(N1CCOCC1)c(=O)n2C1CC1)c1cccc(C(F)(F)F)c1 [Example 11, 8-cyclopropyl-6-(morpholin-4-yl)-4-{[(1R)-1-[3-(trifluoromethyl)phenyl]ethyl]amino}-7H,8H-pyrido[2,3-d]pyrimidin-7-one] |  | 32.8 | IC50 ([3]; Homo sapiens, PC-9, 1 h): 292 nM |
| C[C@@H](Nc1ncnc2c1cc(C1=CC[S+]([O-])CC1)c(=O)n2C)c1cccc(C(F)F)c1F (stereo partly drawn) [Example 22, 4-(((R)-1-(3-(difluoromethyl)-2-fluorophenyl)ethyl)amino)-8-methyl-6-(1-oxido-3,6-dihydro-2H-thiopyran-4-yl)pyrido[2,3-d]pyrimidin-7(8H)-one] | 34.2 | 298 |  |
| C[C@@H](Nc1ncnc2c1cc(C1=CCS(=N)(=O)CC1)c(=O)n2C)c1cccc(C(F)F)c1F (stereo partly drawn) [Example 23, 4-(((R)-1-(3-(difluoromethyl)-2-fluorophenyl)ethyl)amino)-6-(1-imino-1-oxido-1,2,3,6-tetrahydro-1λ^6-thiopyran-4-yl)-8-methylpyrido[2,3-d]pyrimidin-7(8H)-one] | 19.8 | 20.9 |  |
| CN=S1(=O)CC=C(c2cc3c(N[C@H](C)c4cccc(C(F)F)c4F)ncnc3n(C)c2=O)CC1 (stereo partly drawn) [Example 24, 4-(((R)-1-(3-(difluoromethyl)-2-fluorophenyl)ethyl)amino)-8-methyl-6-(1-(methylimino)-1-oxido-1,2,3,6-tetrahydro-1λ^6-thiopyran-4-yl)pyrido[2,3-d]pyrimidin-7(8H)-one] |  | 13.5 |  |
| C[C@@H](Nc1ncnc2c1cc(C1CC[S+]([O-])CC1)c(=O)n2C)c1cccc(C(F)F)c1F (stereo partly drawn) [Example 25, (R)-4-((1-(3-(difluoromethyl)-2-fluorophenyl)ethyl)amino)-8-methyl-6-(1-oxidotetrahydro-2H-thiopyran-4-yl)pyrido[2,3-d]pyrimidin-7(8H)-one] | 19.4 | 15.9 |  |
| Cc1nc(N[C@H](C)c2cccc(C(F)F)c2F)c2cc(C(=O)N3CCOCC3)c(=O)n(C)c2n1 [Example 26, 4-{[(1R)-1-[3-(difluoromethyl)-2-fluorophenyl]ethyl]amino}-2,8-dimethyl-6-(morpholine-4-carbonyl)-7H,8H-pyrido[2,3-d]pyrimidin-7-one] | 115 | 70.2 |  |
| C[C@@H](Nc1ncnc2c1cc(C(=O)N1CC3CCC1CO3)c(=O)n2C)c1cccc(C(F)F)c1F (stereo partly drawn) [Example 26-18] | 150 | 78.6 |  |
| C[C@@H](Nc1ncnc2c1cc(C(=O)N1CC3CCC(C1)O3)c(=O)n2C)c1cccc(C(F)F)c1F [Example 26-19] | 148 | 65.4 |  |
| Cc1nc(N[C@H](C)c2cccc(C(F)F)c2F)c2cc(CN3CCOCC3)c(=O)n(C)c2n1 [Example 27, 4-{[(1R)-1-[3-(difluoromethyl)-2-fluorophenyl]ethyl]amino}-2,8-dimethyl-6-[(morpholin-4-yl)meth-yl]-7H,8H-pyrido[2,3-d]pyrimidin-7-one] | 550 | 192 |  |
| C[C@@H](Nc1ncnc2c1cc(C1(O)CCS(=O)(=O)CC1)c(=O)n2C)c1cccc(C(F)F)c1F [Example 28, 4-(4-{[(1R)-1-[3-(difluoromethyl)-2-fluorophenyl]-ethyl]amino}-8-methyl-7-oxo-7H,8H-pyrido[2,3-d]pyrimidin-6-yl)-4-hydroxy-1λ^6-thiane-1,1-dione] | 45.1 | 20.6 |  |
| C[C@@H](Nc1ncnc2c1cc(C1(F)CCS(=O)(=O)CC1)c(=O)n2C)c1cccc(C(F)F)c1F [Example 29, 4-(4-{[(1R)-1-[3-(difluoromethyl)-2-fluorophenyl]ethyl]amino}-8-methyl-7-oxo-7H,8H-pyrido[2,3-d]-pyrimidin-6-yl)-4-fluoro-1λ^6-thiane-1,1-dione] | 36 | 50.1 |  |
| C[C@@H](Nc1ncnc2c1cc(Sc1ccccc1)c(=O)n2C)c1cccc(C(F)F)c1F [Example 30, 4-{[(1R)-1-[3-(difluoromethyl)-2-fluorophenyl]ethyl]amino}-8-methyl-6-(phenylsulfanyl)-7H,8H-pyrido[2,3-d]pyrimidin-7-one] |  | 10900 |  |
| COC1(c2cc3c(N[C@H](C)c4cccc(C(F)F)c4F)ncnc3n(C)c2=O)CCS(=O)(=O)CC1 [Example 32, 4-(4-{[(1R)-1-[3-(difluoro-methyl)-2-fluorophenyl]ethyl]amino}-8-methyl-7-oxo-7H,8H-pyrido[2,3-d]pyrimidin-6-yl)-4-methoxy-1λ^6-thiane-1,1-dione] | 39.6 |  |  |
| COC1(c2cc3c(N[C@H](C)c4cccc(C(F)F)c4F)ncnc3n(C)c2=O)CCN(C(C)=O)[C@H]1C (stereo partly drawn) [Example 32-100] |  |  | IC50 [3]: 200 nM |
| COC1(c2cc3c(N[C@H](C)c4cccc(C(F)F)c4F)ncnc3n(C)c2=O)CCN(C(C)=O)[C@@H]1C (stereo partly drawn) [Example 32-101] |  |  | IC50 [3]: 348 nM |
| C[C@@H](Nc1ncnc2c1cc(C1(C#N)CCN(C)CC1)c(=O)n2C)c1cccc(C(F)F)c1F [Example 36-2] |  |  | IC50 [3]: 63 nM |
| CC(=O)N1CC2CC2(c2cc3c(N[C@H](C)c4cccc(C(F)F)c4F)ncnc3n(C)c2=O)C1 (stereo partly drawn) [Example 54, 6-{3-acetyl-3-azabicyclo[3.1.0]hexan-1-yl}-4-{[(1R)-1-[3-(difluoromethyl)-2-fluorophenyl]ethyl]amino}-8-methyl-7H,8H-pyrido[2,3-d]pyrimidin-7-one] |  |  | IC50 ([3]; Homo sapiens, PC-9, 1 h): 46.3 nM |

— patent US20210139517A1, “BICYCLIC HETEROARYL COMPOUNDS AND USES THEREOF” (Revolution Medicines, Inc., priority 2019, published 2021)
